Data reported in ChEMBL document CHEMBL1201862, “PubChem BioAssay data set” (2004).
Activity calls are given as the source filed them.

How the values were obtained:
[1] = HEK-293T viability loss after treatment – luminescence, T-cell screen hits, cytotoxicity control for TCR NF-kB inhibitor project, dose response (AID 489026); type: functional, cell-based;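 further: cells exposed to compound about 14 hours before the viability readout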
INS1 = test: INS-1E survival protection against cytokine death – cell-based, luminescence, retest, dose response (AID 449756); type: functional; details: Rattus norvegicus;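 further: cell death triggered by IL-1 beta plus TNF-alpha plus IFN-gamma mixture; protective hits raise ATP signal compared with cytokine alone wells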
[2] = biological target: T1, COUP transcription factor 2 (Homo sapiens, UniProt P24468); test: Luminescence-based cell-based high throughput dose response assay to identify inhibitors of COUP-TFII (NR2F2).; type: functional;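 further: HEK293 cells transiently cotransfected with COUP-TFII expression vector and reporter; luciferase reporter luminescence driven by COUP-TFII from the pX2-168 reporter plasmid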
T1 sequence (P24468 whole entry): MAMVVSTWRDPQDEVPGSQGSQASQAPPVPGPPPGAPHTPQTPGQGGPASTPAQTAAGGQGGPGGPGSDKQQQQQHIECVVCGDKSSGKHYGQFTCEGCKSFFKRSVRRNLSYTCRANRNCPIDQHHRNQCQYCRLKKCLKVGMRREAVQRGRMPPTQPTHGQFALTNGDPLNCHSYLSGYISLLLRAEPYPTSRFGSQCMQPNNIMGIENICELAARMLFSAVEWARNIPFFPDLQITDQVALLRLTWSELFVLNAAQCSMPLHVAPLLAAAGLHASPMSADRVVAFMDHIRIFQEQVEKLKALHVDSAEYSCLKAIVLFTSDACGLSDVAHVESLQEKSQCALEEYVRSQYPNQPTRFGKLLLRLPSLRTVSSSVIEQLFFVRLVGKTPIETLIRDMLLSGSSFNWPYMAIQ

Galanin receptor type 3 = biological target: T2, Galanin receptor type 3 (Homo sapiens, UniProt O60755); test: Fluorescence-based cell-based primary high throughput dose response assay to identify antagonists of the Galanin Receptor 3 (GalR3).; type: functional
T2 sequence (O60755 whole entry): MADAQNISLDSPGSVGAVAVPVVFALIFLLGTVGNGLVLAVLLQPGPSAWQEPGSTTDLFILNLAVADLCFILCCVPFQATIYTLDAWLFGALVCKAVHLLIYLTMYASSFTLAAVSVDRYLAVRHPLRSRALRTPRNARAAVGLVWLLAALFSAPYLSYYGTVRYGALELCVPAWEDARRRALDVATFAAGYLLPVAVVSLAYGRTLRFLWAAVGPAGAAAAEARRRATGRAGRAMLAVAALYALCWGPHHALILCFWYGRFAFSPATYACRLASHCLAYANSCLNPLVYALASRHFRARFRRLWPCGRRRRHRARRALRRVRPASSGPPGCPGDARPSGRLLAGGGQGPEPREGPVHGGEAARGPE

cells = type: functional, cell-based; details: HEK-CNG
Paired box protein Pax-8 = Paired box protein Pax-8 (Homo sapiens, UniProt Q06710); test: PAX8 transcriptional activity inhibition in RMG-I – RMG-I cells, luciferase, cherry-pick, dose response (AID 687027); type: functional, cell-based;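 further: luciferase reporter driven by Pax8 target thyroperoxidase promoter measured by SteadyGlo luminescence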
[3] = P. falciparum Dd2 growth inhibitors, dose response, SYBR Green, cherry-picked samples (AID 1159567); type: functional, cell-based
[4] = OVCAR8 cell viability loss – plate reader, dry powder samples, PAX8 project, dose response (AID 743197); type: functional, cell-based; details: OVCAR-8
[5] = T. cruzi growth inhibition in host cells, dose response, cell-based, plate reader, dry powder, set 2 (AID 652275); type: functional
[6] = viability loss in HEK293 kidney cells – cell-based, cherry-picks, set 5, cytotoxicity control, dose response (AID 1053117); type: functional
[7] = toxicity to human HepG2 hepatoma cells – cell-based, plate reader, dry powder samples, cytotoxicity control, dose response (AID 1159569); type: functional;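 further: inhibitor potency with signal falling toward the positive control level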
[8] = growth inhibition of PfATP4-mutant resistant parasites – NITD609-resistant line, SYBR Green, dry powder, dose response (AID 1159571); type: functional, cell-based;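 further: parasites synchronized at ring stage by sorbitol before testing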
[9] = Dd2 malaria parasite growth inhibition potency – SYBR Green, dry powder samples, dose response (AID 1159566); type: functional, cell-based;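 further: potency for growth inhibition with lower SYBR green DNA signal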
[10] = growth inhibition of yeast DHODH-expressing 3D7 parasites – SYBR Green, dry powder samples, dose response (AID 1159570); type: functional, cell-based;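 further: parasite growth measured after 72 hours of compound exposure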
[11] = toxicity to human hepatoma HepG2 cells – cell-based, cherry-picked samples, cytotoxicity control, dose response (AID 1159577); type: functional
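Wherever EC50 is given: target is galanin receptor GalR3 read with a cAMP biosensor in HEK293 cells.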

Chain of Paired box protein Pax-8 (Q06710 whole entry): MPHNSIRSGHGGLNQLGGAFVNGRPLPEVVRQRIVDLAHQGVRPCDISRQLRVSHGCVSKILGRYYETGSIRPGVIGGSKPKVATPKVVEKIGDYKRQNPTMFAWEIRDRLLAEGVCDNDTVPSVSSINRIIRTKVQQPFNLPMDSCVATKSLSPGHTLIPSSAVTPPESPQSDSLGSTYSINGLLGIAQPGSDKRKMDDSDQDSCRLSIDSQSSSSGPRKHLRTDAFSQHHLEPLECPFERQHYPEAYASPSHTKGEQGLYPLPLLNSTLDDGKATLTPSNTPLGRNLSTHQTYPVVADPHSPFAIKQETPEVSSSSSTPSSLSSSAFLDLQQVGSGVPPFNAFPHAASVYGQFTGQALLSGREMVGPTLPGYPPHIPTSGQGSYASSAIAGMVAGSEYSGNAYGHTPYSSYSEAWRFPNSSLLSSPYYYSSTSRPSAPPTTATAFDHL

## Cc1cc(C)c(CN2CCN(C(=O)Cn3cnc4c(OCc5ccccc5)ncnc43)CC2)c(C)c1
[1]
  IC50: > 80 µM (inactive)
INS1
  AC50: 3.51 µM (active)
[2]
  IC50: 5.99 µM (active)
Galanin receptor type 3
  IC50: 2.86 µM (active)
cells
  EC50: > 29.9 µM (inactive)

## C[C@H]1CN([C@@H](C)CO)C(=O)c2c(c3ccccc3n2C)-c2ccccc2CO[C@@H]1CN(C)S(=O)(=O)c1cccc(F)c1
Paired box protein Pax-8
  AC50: 11.6 µM (active)
[3]
  AC50: 4.88 µM (active)
[4]
  AC50: 37.3 µM (active)

## COc1cccc(-c2ccc([C@H]3[C@H](CO)N4CCCCN(C(=O)Cc5ccncc5)C[C@@H]34)cc2)c1
[5]
  AC50: 2.13 µM (active)

## CC(C)(O)C#Cc1cccc(-c2nc(C(=O)NCc3ccc4c(c3)OCO4)cc3c2[C@H](CCO)N([S+]([O-])C(C)(C)C)C3)c1 (stereo partly drawn)
[5]
  AC50: 2.44 µM (active)

## C[C@H](CO)N1C[C@H](C)[C@@H](CN(C)C(=O)c2cccc(F)c2)Oc2ncc(-c3ccccc3)cc2C1=O
[6]
  AC50: > 52 µM (inactive)

## CC(C)N1C[C@H](C)[C@@H](CN(C)Cc2ccc(Oc3ccccc3)cc2)Oc2c(cccc2-c2nn[nH]n2)C1=O
[5]
  AC50: 7.34 µM (active)

## CCC(=O)N1CC2(CCN(C(=O)Nc3ccccc3F)CC2)c2c([nH]c3cc(OC)ccc23)[C@H]1CO
[3]
  AC50: 1.24 µM (active)
[7]
  AC50: 50.4 µM (active)
[8]
  AC50: 0.934 µM (active)
[9]
  AC50: 1.1 µM (active)
[10]
  AC50: 1.2 µM (active)

## C[C@H]1CN([C@@H](C)CO)C(=O)c2cc(C#CCc3ccccc3)cnc2O[C@@H]1CN(C)CC1CCCC1
[3]
  AC50: 4.29 µM (active)
[11]
  AC50: 11.2 µM (active)

## COc1ccccc1C#Cc1ccc([C@H]2[C@@H](C#N)N(C(=O)C3CCCC3)[C@@H]2CO)cc1
[3]
  AC50: 5.1 µM (active)
[11]
  AC50: > 39 µM (inactive)

## CCC(=O)N1[C@H](CO)[C@H](c2ccc(C3=CCCC3)cc2)[C@H]1CNCC1CCCC1
[3]
  AC50: 3.77 µM (active)
[11]
  AC50: > 39 µM (inactive)

## COc1ccc(NC(=O)Nc2cccc3c2O[C@H](CN(C)C(=O)Nc2cccc4ccccc24)[C@H](C)CN([C@@H](C)CO)C3=O)cc1
[3]
  AC50: 2.54 µM (active)
[7]
  AC50: > 100 µM (inactive)
[8]
  AC50: 0.971 µM (active)
[9]
  AC50: 0.547 µM (active)
[10]
  AC50: 1.64 µM (active)
